Data reported in patent publication US9073851B2, “Compositions and methods for treating cancer” (Board of Regents, The University of Texas System, priority 2011, dated 2015).

Assays:
MCF-7 cells = assay: Clonogenic survival assay; type: cell-based, human
Protocol: To study the effect of CaMK-III growth of ER(−) and ER(+) breast cancer cells we performed a clonogenic assay, which is based on the ability of a single cell to grow into a colony (Franken N A, et al. Nat Protoc 2006: 1:2315-9), using MDA-MB-231 and MCF-7 cells, respectively. Cells were transfected with either CaMK-III or control siRNA (50 nM) […] over a period of two weeks.
This assay is an in vitro cell survival assay based on the ability of a single cell to grow into a colony. Briefly, cells (500 cells/well) were transfected with control siRNA or CaMK-III siRNA every week and grown for 2 to 3 weeks. Cells were stained with crystal violet and colonies were counted. Each experiment was repeated twice.
To study the effect of 5-HT1B on the survival and colony formation of breast cancer cells a clonogenic survival assay was performed using various concentrations of […] over a period of two weeks. This assay is based on the ability of a single cell to grow into a colony [Franken N A, et al. Nat Protoc 2006: 1:2315-2319]. […] Cell death and detachment as well as reduced cell number was observed.
This assay is an in vitro cell survival assay based on the ability of a single cell to grow into a colony. […] Cells were stained with crystal violet and colonies cells were counted. […]

5-HT1B/1D receptor = assay: cAMP levels; type: cell-based
[1] = Toxicity and body weight observation in mice

What does the source list for `CCCCCCCCCOc1ccc2[nH]cc(CCN)c2c1` [5-NT, 5-nonylytryptamine]?
colony formation (MCF-7 cells): inhibits colony formation; cAMP levels (5-HT1B/1D receptor): decrease cAMP levels; toxicity (weight loss) ([1]; high dose of 50 mg/kg): without displaying any toxicity; body weight ([1]; liposome incorporated, i.v., 10 mg/kg, at least 15 doses, 4 weeks): did not lose any weight
